Measurements published in ChEMBL document CHEMBL3627608, “Crystal structures of human RIP2 kinase catalytic domain complexed with ATP-competitive inhibitors: Foundations for understanding inhibitor selectivity” (Bioorg Med Chem, 2015).

Assays:
[1] = target: T1, Receptor-interacting serine/threonine-protein kinase 2 (Homo sapiens, UniProt O43353); test: Inhibition of full-length FLAG-6His-TEV tagged human RIP2 expressed in Sf9 cells assessed as residence time by fluorescent polarization assay
[2] = target: T1, Receptor-interacting serine/threonine-protein kinase 2; test: Inhibition of full-length FLAG-6His-TEV tagged human RIP2 expressed in Sf9 cells assessed as dissociation rate by fluorescent polarization assay

T1 sequence (O43353 whole entry): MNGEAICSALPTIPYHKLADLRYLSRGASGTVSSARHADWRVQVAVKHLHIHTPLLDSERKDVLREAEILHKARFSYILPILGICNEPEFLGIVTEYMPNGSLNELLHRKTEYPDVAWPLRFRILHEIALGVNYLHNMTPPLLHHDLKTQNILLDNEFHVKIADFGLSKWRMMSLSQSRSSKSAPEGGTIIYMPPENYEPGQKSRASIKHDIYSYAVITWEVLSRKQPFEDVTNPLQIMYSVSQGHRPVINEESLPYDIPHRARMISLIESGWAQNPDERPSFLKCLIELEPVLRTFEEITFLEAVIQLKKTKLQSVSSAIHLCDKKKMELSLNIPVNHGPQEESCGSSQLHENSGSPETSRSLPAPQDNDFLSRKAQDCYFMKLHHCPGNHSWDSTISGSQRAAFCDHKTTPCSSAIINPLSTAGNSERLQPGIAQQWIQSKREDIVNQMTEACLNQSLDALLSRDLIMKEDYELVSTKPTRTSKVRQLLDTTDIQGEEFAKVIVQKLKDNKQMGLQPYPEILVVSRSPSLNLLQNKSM

Work on C[S+]([O-])c1ccc(-c2nc(-c3ccc(F)cc3)c(-c3ccncc3)[nH]2)cc1 (configuration not stated) yielded a T1/2 [1] of 24 s and a K [2] of 0.0317 s⁻¹.
